In brackets after ≈: the same amount, converted by molar mass.
Experiments:
Type in all cases: functional
Staphylococcus aureus [1] = assay: Antimicrobial activity against methicillin-resistant Staphylococcus aureus clinical isolate after 18 to 22 hrs by broth microdilution method
Staphylococcus aureus [2] = assay: Antimicrobial activity against methicillin-susceptible Staphylococcus aureus clinical isolate after 18 to 22 hrs by broth microdilution method
[3] = tested on: Staphylococcus epidermidis; assay: Antimicrobial activity against methicillin-resistant Staphylococcus epidermidis clinical isolate after 18 to 22 hrs by broth microdilution method
[4] = tested on: Staphylococcus epidermidis; assay: Antimicrobial activity against methicillin-susceptible Staphylococcus epidermidis clinical isolate after 18 to 22 hrs by broth microdilution method
[5] = tested on: Staphylococcus haemolyticus; assay: Antimicrobial activity against Staphylococcus haemolyticus clinical isolate after 18 to 22 hrs by broth microdilution method
Enterococcus faecalis [6] = assay: Antimicrobial activity against Enterococcus faecalis clinical isolate after 18 to 22 hrs by broth microdilution method
Enterococcus faecium [7] = assay: Antimicrobial activity against Enterococcus faecium clinical isolate after 18 to 22 hrs by broth microdilution method
Enterococcus faecalis [8] = assay: Antimicrobial activity against vancomycin-resistant Enterococcus faecalis clinical isolate after 18 to 22 hrs by broth microdilution method
Enterococcus faecium [9] = assay: Antimicrobial activity against vancomycin-resistant Enterococcus faecium clinical isolate after 18 to 22 hrs by broth microdilution method
Enterococcus avium = assay: Antimicrobial activity against Enterococcus avium clinical isolate after 18 to 22 hrs by broth microdilution method
Streptococcus pneumoniae [10] = assay: Antimicrobial activity against penicillin-susceptible Streptococcus pneumoniae clinical isolate after 18 to 22 hrs by broth microdilution method
Streptococcus pneumoniae [11] = assay: Antimicrobial activity against penicillin-intermediate Streptococcus pneumoniae clinical isolate after 18 to 22 hrs by broth microdilution method
Streptococcus pneumoniae [12] = assay: Antimicrobial activity against penicillin-resistant Streptococcus pneumoniae clinical isolate after 18 to 22 hrs by broth microdilution method
Streptococcus pyogenes = assay: Antimicrobial activity against Streptococcus pyogenes clinical isolate after 18 to 22 hrs by broth microdilution method
[13] = tested on: Enterococcus casseliflavus; assay: Antimicrobial activity against Enterococcus casseliflavus clinical isolate after 18 to 22 hrs by broth microdilution method
Enterococcus durans = assay: Antimicrobial activity against Enterococcus durans clinical isolate after 18 to 22 hrs by broth microdilution method
Enterococcus gallinarum = assay: Antimicrobial activity against Enterococcus gallinarum clinical isolate after 18 to 22 hrs by broth microdilution method
Enterococcus hirae = assay: Antimicrobial activity against Enterococcus hirae clinical isolate after 18 to 22 hrs by broth microdilution method
Streptococcus agalactiae = assay: Antimicrobial activity against Streptococcus agalactiae clinical isolate after 18 to 22 hrs by broth microdilution method

CC(=O)NC[C@H]1CN(c2ccc(N3CCOCC3)c(F)c2)C(=O)O1 [LINEZOLID]
MIC50 (Staphylococcus aureus [1]): 2 µg/mL (≈ 5.93 µM)
MIC90 (Staphylococcus aureus [1]): 4 µg/mL (≈ 11.9 µM)
MIC50 (Staphylococcus aureus [2]): 4 µg/mL (≈ 11.9 µM)
MIC90 (Staphylococcus aureus [2]): 4 µg/mL (≈ 11.9 µM)
MIC [3]: 1 µg/mL (≈ 2.96 µM)
MIC50 [3]: 1 µg/mL (≈ 2.96 µM)
MIC90 [3]: 2 µg/mL (≈ 5.93 µM)
MIC [4]: 1 µg/mL (≈ 2.96 µM)
MIC50 [4]: 1 µg/mL (≈ 2.96 µM)
MIC90 [4]: 2 µg/mL (≈ 5.93 µM)
MIC [5]: 1 µg/mL (≈ 2.96 µM)
MIC50 [5]: 1 µg/mL (≈ 2.96 µM)
MIC90 [5]: 2 µg/mL (≈ 5.93 µM)
MIC50 (Enterococcus faecalis [6]): 2 µg/mL (≈ 5.93 µM)
MIC90 (Enterococcus faecalis [6]): 2 µg/mL (≈ 5.93 µM)
MIC50 (Enterococcus faecium [7]): 2 µg/mL (≈ 5.93 µM)
MIC90 (Enterococcus faecium [7]): 2 µg/mL (≈ 5.93 µM)
MIC50 (Enterococcus faecalis [8]): 2 µg/mL (≈ 5.93 µM)
MIC90 (Enterococcus faecalis [8]): 2 µg/mL (≈ 5.93 µM)
MIC50 (Enterococcus faecium [9]): 2 µg/mL (≈ 5.93 µM)
MIC90 (Enterococcus faecium [9]): 2 µg/mL (≈ 5.93 µM)
MIC50 (Enterococcus avium): 2 µg/mL (≈ 5.93 µM)
MIC90 (Enterococcus avium): 2 µg/mL (≈ 5.93 µM)
MIC50 (Streptococcus pneumoniae [10]): 0.5 µg/mL (≈ 1.48 µM)
MIC90 (Streptococcus pneumoniae [10]): 1 µg/mL (≈ 2.96 µM)
MIC50 (Streptococcus pneumoniae [11]): 0.5 µg/mL (≈ 1.48 µM)
MIC90 (Streptococcus pneumoniae [11]): 1 µg/mL (≈ 2.96 µM)
MIC50 (Streptococcus pneumoniae [12]): 1 µg/mL (≈ 2.96 µM)
MIC90 (Streptococcus pneumoniae [12]): 1 µg/mL (≈ 2.96 µM)
MIC50 (Streptococcus pyogenes): 1 µg/mL (≈ 2.96 µM)
MIC90 (Streptococcus pyogenes): 1 µg/mL (≈ 2.96 µM)
MIC50 [13]: 2 µg/mL (≈ 5.93 µM)
MIC90 [13]: 2 µg/mL (≈ 5.93 µM)
MIC50 (Enterococcus durans): 2 µg/mL (≈ 5.93 µM)
MIC90 (Enterococcus durans): 2 µg/mL (≈ 5.93 µM)
MIC50 (Enterococcus gallinarum): 2 µg/mL (≈ 5.93 µM)
MIC90 (Enterococcus gallinarum): 2 µg/mL (≈ 5.93 µM)
MIC50 (Enterococcus hirae): 2 µg/mL (≈ 5.93 µM)
MIC90 (Enterococcus hirae): 2 µg/mL (≈ 5.93 µM)
MIC50 (Streptococcus agalactiae): 1 µg/mL (≈ 2.96 µM)
MIC90 (Streptococcus agalactiae): 2 µg/mL (≈ 5.93 µM)
